We go through two compounds from patent US20020052353A1, “Methods of prevention and treatment of ischemic damage” (priority 1999, published 2002).

Test [1] relates to ischemia induced by middle cerebral artery occlusion (MCAO). As to the kind of experiment: Pretreatment with estrogen compounds before middle cerebral artery occlusion (MCAO) in ovariectomized rats: mortality and ischemic area. Format: in vivo, rat. As to conditions: for reduction of ischemic area: 5 mm Silastic tube 24 h prior to MCAO.
Test [2] shares this test system. As to the kind of experiment: Post-treatment at 0.5, 1, 2, 3 and 4 hours after MCAO: ischemic lesion volume by TTC staining. Format: in vivo, rat. The following applies: iv 100 μg/kg HPCD-complexed 17β-estradiol plus Silastic pellet at 0.5, 1, 2 or 3 hours post-occlusion; 48 hours after MCAO.
The test system of test [3] is Primary rat brain capillary endothelial cells (BCEC). As to the kind of experiment: BCEC mortality under combined anoxia and hypoglycemia, Trypan blue. As to conditions: 2 nM; 100 mg % glucose; anoxia 2 hours.
Experimental: Cell media contained 200 mg % or 100 mg % glucose. Culture dishes containing BCEC were placed in either an incubator or a nitrogen filled chamber for two hours. Trypan blue staining was used to distinguish live cells from dead cells. Two cell countings at two different hemacytometer squares were averaged. Mean ±SEM are depicted (n=8.12). *<0.05 vs. corresponding vehicle control.
(§1) Primary rat brain capillary endothelial cells (BCEC) cultures were prepared following the method of Goldstein, J. Neurochemistry vol.
Nitrogen gas was influxed to replace the oxygen inside the chamber. The chamber was sealed and placed in the incubator for four hours for nonhypoglycemic cultures and 2 hours for hypoglycemic cultures.
(§2) Cell mortality was counted using Trypan blue staining method. Cell death percentage was calculated as dead cell/alive cell ×100%.
(§3) Statistical treatment included two-way analysis of variance applied to determine the significance of the difference among the experimental groups. Kruskal-Wallis nonparametric analysis was used for data presented as percentage. […] P<0.05 was considered significant.
For test [4] the test system is unchanged. Description: Brain capillary endothelial cell (BCEC) mortality under hypoglycemia, Trypan blue. As to conditions: 2 nM.
Experimental: The control consists of the ethanol vehicle only. The glucose concentrations in the cell media were adjusted from 20 mg % to 200 mg % by adding appropriate amount of D-(+)-glucose to the glucose-free media. BCEC were incubated for 24 hours (a) and 48 hours (b). Trypan blue staining was used to distinguish live cells from dead cells. Two cell countings at two different hemacytometer squares were averaged. Mean±SEM are depicted (n=8-12). *p<0.05 vs. corresponding vehicle control.
as §1
Hypoglycemia experiments were undertaken. […] The glucose concentration of the culture media was then adjusted from 20 mg % to 200 mg % by adding appropriate amount of D-(+)-glucose to the glucose-free media and monitored by Glucose and L-Lactate Analyzer (YSI model 2300 STAT plus, YSI, Inc., Yellow Springs, Ohio). The hypoglycemic cultures were maintained for 24 hours or 48 hours prior to staining with Trypan blue.
as §2, §3

With `C[C@]12CC[C@@H]3c4ccc(O)cc4CC[C@H]3[C@@H]1CC[C@H]2O` [17α-estradiol], the “reduction of ischemic area” value is reported as 55% in test [1] (slice C), 66% in test [1] (slice D) and 81% in test [1] (slice E). Besides, in test [1] (sustained subcutaneous delivery initiated 24 hours prior to ischemic event, slices A-E), the “protective effect in tissue slices (FIG. 3)” value is “significant protective effect”.
Regarding `C[C@]12CC[C@@H]3c4ccc(O)cc4CC[C@H]3[C@@H]1CC[C@@H]2O` [17β-estradiol], the “ischemic area, percent of cross-sectional area of brain sections” value in test [1] (pretreatment 24 h prior to MCAO, 3 brain slices, sham 25.6±5.7%) was 9.8±4.0%. Also, the “protective effect in tissue slices (FIG. 2)” value in test [1] (sc injection two hours prior to ischemic event, slices A-D) is on record as “significant protective effect”. In test [2], the “protection, ischemic lesion volume (TTC staining)” value is “significant protection”. For the same compound, the “protection from cumulative effect of hypoglycemia and anoxia” value in test [3] is “effective in protecting”. In addition, the “cell loss saved compared with control” value in test [4] (media glucose 20 mg %) is 23%; in test [4] (media glucose 40 mg %) it was 28.4%; in test [4] (media glucose 100 mg %) it was 35.9%.
